From publication PMC5513037, “Examining the influence of specificity ligands and ATP-competitive ligands on the overall effectiveness of bivalent kinase inhibitors” (Proteome Science, 2017) come the findings set out here.

Test in all cases: KAM-matrix competition in K562 lysate
Holding throughout (type): binding

In one assay the target is T1, KSR1 (Homo sapiens, UniProt Q8IVT5).
T1 construct: endogenous in cells; host or cells: K562
T1 sequence (Q8IVT5 1-923): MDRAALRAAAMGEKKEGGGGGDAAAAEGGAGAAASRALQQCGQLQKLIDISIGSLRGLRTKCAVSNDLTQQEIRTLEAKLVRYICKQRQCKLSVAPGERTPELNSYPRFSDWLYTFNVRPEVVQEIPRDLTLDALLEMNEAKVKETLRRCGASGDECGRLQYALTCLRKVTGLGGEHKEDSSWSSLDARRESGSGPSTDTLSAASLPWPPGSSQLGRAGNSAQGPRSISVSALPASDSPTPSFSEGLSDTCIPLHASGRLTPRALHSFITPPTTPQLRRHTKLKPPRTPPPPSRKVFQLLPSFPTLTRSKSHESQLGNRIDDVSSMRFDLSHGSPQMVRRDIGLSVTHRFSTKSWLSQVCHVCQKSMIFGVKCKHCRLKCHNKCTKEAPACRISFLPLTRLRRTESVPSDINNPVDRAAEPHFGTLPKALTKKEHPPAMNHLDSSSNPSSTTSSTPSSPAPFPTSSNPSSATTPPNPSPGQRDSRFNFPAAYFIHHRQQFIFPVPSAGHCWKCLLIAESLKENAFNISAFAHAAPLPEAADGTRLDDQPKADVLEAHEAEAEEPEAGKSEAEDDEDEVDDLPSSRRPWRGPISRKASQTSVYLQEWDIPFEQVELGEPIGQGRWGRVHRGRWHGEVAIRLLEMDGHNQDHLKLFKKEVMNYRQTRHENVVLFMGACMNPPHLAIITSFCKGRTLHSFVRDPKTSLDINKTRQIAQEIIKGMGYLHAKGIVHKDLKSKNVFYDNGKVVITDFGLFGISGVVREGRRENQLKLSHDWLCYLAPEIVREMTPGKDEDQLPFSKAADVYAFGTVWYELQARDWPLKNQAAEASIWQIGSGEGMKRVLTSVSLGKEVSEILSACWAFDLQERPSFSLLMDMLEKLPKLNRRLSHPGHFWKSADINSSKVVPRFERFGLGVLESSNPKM
As to the method:
(§1) Supplement 12953_2017_125_MOESM1_ESM.zip/MS_Supp Info.xlsx, sheet "KAM" | column: 10 uM KAM; 1 uM KAM; 0.1 uM KAM; 0.01 uM KAM; 0.001 uM KAM; RB50

For another assay, the target named is T2, NEK8 (Homo sapiens, UniProt Q86SG6).
T2 construct: endogenous in cells; host or cells: K562
T2 sequence (Q86SG6 1-692): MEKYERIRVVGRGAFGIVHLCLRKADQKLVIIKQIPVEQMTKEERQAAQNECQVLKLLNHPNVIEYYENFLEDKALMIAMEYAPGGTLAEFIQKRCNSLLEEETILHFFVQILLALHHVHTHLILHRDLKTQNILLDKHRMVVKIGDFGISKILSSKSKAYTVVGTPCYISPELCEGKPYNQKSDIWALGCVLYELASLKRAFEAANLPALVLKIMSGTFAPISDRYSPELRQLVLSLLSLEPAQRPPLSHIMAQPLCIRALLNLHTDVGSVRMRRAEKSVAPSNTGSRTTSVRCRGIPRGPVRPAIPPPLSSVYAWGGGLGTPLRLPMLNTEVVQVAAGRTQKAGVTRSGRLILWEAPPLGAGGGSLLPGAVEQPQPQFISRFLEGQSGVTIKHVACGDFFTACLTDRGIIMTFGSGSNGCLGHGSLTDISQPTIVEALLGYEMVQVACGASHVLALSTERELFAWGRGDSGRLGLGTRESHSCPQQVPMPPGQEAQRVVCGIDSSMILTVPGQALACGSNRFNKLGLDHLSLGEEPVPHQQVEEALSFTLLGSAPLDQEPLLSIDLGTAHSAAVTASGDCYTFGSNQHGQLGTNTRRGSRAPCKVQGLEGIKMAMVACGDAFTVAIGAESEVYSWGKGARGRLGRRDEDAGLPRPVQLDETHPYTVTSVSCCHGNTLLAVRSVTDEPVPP
The procedure:
as §1

A further assay has as its target T3, PRKACA (Homo sapiens, UniProt P17612).
T3 construct: endogenous in cells; host or cells: K562 lysate
As to the method: as §1

In another assay the target is T4, RPS6KB1 (Homo sapiens, UniProt P23443).
T4 construct: endogenous in cells; host or cells: K562
T4 sequence (P23443 whole entry): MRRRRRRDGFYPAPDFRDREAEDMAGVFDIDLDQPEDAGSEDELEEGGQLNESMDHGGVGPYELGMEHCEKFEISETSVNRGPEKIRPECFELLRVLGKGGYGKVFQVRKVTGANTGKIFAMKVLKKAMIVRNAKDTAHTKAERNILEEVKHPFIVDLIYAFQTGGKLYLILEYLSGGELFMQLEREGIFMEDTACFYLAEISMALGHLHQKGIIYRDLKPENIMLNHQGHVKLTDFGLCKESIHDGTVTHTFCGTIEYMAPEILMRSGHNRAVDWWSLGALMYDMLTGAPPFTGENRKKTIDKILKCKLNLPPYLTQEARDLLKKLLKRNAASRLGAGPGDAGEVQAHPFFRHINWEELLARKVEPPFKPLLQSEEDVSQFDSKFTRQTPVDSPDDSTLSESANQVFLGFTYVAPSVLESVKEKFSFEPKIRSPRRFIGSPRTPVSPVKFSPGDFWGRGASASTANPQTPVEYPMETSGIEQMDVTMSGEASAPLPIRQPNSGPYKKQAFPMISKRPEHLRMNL
As to the method: as §1

[1] abbreviates: KAM 0.001-10 uM, read-out: RB50 (the source's name).
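For 0.001 uM KAM in this document: median log10 fold change of treatment over DMSO control.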
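For 0.01 uM KAM in this document: median log10 fold change of treatment over DMSO control.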
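For 0.1 uM KAM in this document: median log10 fold change of treatment over DMSO control.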
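For 1 uM KAM in this document: median log10 fold change of treatment over DMSO control.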
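For 10 uM KAM in this document: median log10 fold change of treatment over DMSO control.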

Consider `N#CCc1ccc(Nc2nc(NCCCN)cc(Nc3cc(C4CC4)[nH]n3)n2)cc1` [KAM], for which the IC50 on KSR1 (setting [1]) was above 10 µM; on NEK8 (read-out: RB50 (the source's name)) it was 0.861 µM; at PRKACA (setting [1]), above 10 µM; at RPS6KB1 (setting [1]) it was above 10 µM. The “0.001 uM KAM” value is given as -0.01848 at KSR1 (relative to 0 uM KAM = 0), 0.01517 at PRKACA (relative to 0 uM KAM = 0) and 0.05992 on RPS6KB1 (relative to 0 uM KAM = 0). Besides, the “0.01 uM KAM” value at KSR1 (relative to 0 uM KAM = 0) is -0.01741; at PRKACA (relative to 0 uM KAM = 0), -0.007672; on RPS6KB1 (relative to 0 uM KAM = 0), 0.07406. Besides, the results for the “0.1 uM KAM” value on KSR1 (relative to 0 uM KAM = 0), at PRKACA (relative to 0 uM KAM = 0) and on RPS6KB1 (relative to 0 uM KAM = 0) were -0.1182, 0.08573 and 0.2008, respectively. Further, the “1 uM KAM” value on KSR1 (relative to 0 uM KAM = 0) is listed as -0.1931; at PRKACA (relative to 0 uM KAM = 0), 0.0122; on RPS6KB1 (relative to 0 uM KAM = 0), 0.1222. Also, the “10 uM KAM” value is reported as -0.2362 on KSR1 (relative to 0 uM KAM = 0), 0.04616 on PRKACA (relative to 0 uM KAM = 0) and 0.1654 at RPS6KB1 (relative to 0 uM KAM = 0). Further, the “median Log10 fold change” value at NEK8 (0.001 uM KAM) is recorded as -0.1269; at NEK8 (0.01 uM KAM) it was -0.1123; on NEK8 (0.1 uM KAM), -0.2566; at NEK8 (1 uM KAM), -0.2815; at NEK8 (10 uM KAM) it was -0.455.
